Measurements taken from US20250366475A1, “HERBICIDAL COMBINATIONS AND A METHOD FOR CONTROLLING UNDESIRED VEGETATION” (UPL Mauritius Limited, priority 2022, published 2025).

System: Brachiaria decumbens
Assay: Post-emergence herbicidal activity, efficacy on Brachiaria decumbens (Colby method for expected efficacy)
Format: in vivo
Protocol: Methodology: Trials were conducted to evaluate the efficacy of the combinations comprising L-glufosinate ammonium and the additional herbicides on Brachiaria genus weeds.
All treatments were in 4 replications per treatment with a spray volume of about 150 L/ha.
Efficacy Evaluation: The expected efficacy of a combination comprising L-glufosinate ammonium and additional herbicides was calculated using the well-established Colby method.
In the Colby method, the expected (or predicted) response of a combination of herbicides is calculated by taking the product of the observed response for each individual component of the combination when applied alone, divided by 100, and subtracting this value from the sum of the observed response for each component when applied alone. An unexpected enhancement in efficacy of the combination is then determined by comparing the observed response of the combination to the expected (or predicted) response as calculated from the observed response of each individual component alone. […] The Colby method requires only a single dose of each herbicide applied alone and the mixture of both doses. The formula used to calculate the expected efficacy (EE) which was compared with the observed efficacy (OE) to determine the efficacy of the present disclosure is explained hereinbelow:
The expected efficacy for a combination of two active ingredients is as follows:
[formula] • wherein, • A=Observed efficacy of active ingredient A at the same concentration as used in the mixture. • B=Observed efficacy of the active ingredient B at the same concentration as used in the mixture.

Structure (SMILES): Cn1nc(C(F)(F)F)c(CS(=O)(=O)C2=NOC(C)(C)C2)c1OC(F)F [Pyroxasulfone]
- Observed efficacy (%) (75 g a.i./ha, 7 DAA, Table 10): 0%
- Observed efficacy (%) (75 g a.i./ha, 14 DAA, Table 10): 15%
- Observed efficacy (%) (75 g a.i./ha, 21 DAA, Table 10): 25%
- Observed efficacy (%) (75 g a.i./ha, 28 DAA, Table 10): 20%

Structure (SMILES): Cc1ccc2c(c1)[C@H](Nc1nc(N)nc(C(C)F)n1)[C@@H](C)C2 (some centres unmarked) [Indaziflam]
- Observed efficacy (%) (50 g a.i./ha, 7 DAA, Table 8): 50%
- Observed efficacy (%) (50 g a.i./ha, 14 DAA, Table 8): 75%
- Observed efficacy (%) (50 g a.i./ha, 21 DAA, Table 8): 90%

Structure (SMILES): CS(=O)(=O)c1ccc(C(=O)C2C(=O)CCCC2=O)c([N+](=O)[O-])c1 [mesotrione, Mesotrione]
- Observed efficacy (%) (100 g a.i./ha, 3 DAA, Table 16): 10%

Structure (SMILES): CCc1cccc(C)c1N(C(=O)CCl)[C@@H](C)COC [S-metolachlor]
- Observed efficacy (%) (960 g a.i./ha, 7 DAA, Table 7): 0%
- Observed efficacy (%) (960 g a.i./ha, 14 DAA, Table 7): 0%
- Observed efficacy (%) (960 g a.i./ha, 21 DAA, Table 7): 0%
- Observed efficacy (%) (960 g a.i./ha, 28 DAA, Table 7): 0%

Structure (SMILES): CS(=O)(=O)c1ccc(C(=O)C2C(=O)CCCC2=O)c(Cl)c1COCC(F)(F)F [tembotrione, Tembotrione]
- Observed efficacy (%) (53 g a.i./ha, 3 DAA, Table 13): 8%

Structure (SMILES): C[C@@H](Oc1ccc(Oc2cnc3cc(Cl)ccc3n2)cc1)C(=O)OCC1CCCO1 (some centres unmarked) [quizalofop-p-tefuryl, Quizalofop-p-tefuryl]
- Observed efficacy (%) (25 g a.i./ha, 14 DAA, Table 15): 20%
- Observed efficacy (%) (25 g a.i./ha, 21 DAA, Table 15): 10%
- Observed efficacy (%) (25 g a.i./ha, 28 DAA, Table 15): 5%
- Observed efficacy (%) (25 g a.i./ha, 35 DAA, Table 15): 5%

Structure (SMILES): CP(=O)(O)CC[C@H](N)C(=O)O.N [L-glufosinate ammonium]
- Observed efficacy (%) (150 g a.i./ha, 3 DAA, Table 13): 40%
- Observed efficacy (%) (150 g a.i./ha, 3 DAA, Table 16): 40%
- Observed efficacy (%) (150 g a.i./ha, 7 DAA, Table 7): 65%
- Observed efficacy (%) (150 g a.i./ha, 7 DAA, Table 8): 75%
- Observed efficacy (%) (150 g a.i./ha, 7 DAA, Table 9): 70%
- Observed efficacy (%) (150 g a.i./ha, 7 DAA, Table 10): 65%
- Observed efficacy (%) (150 g a.i./ha, 7 DAA, Table 11): 75%
- Observed efficacy (%) (150 g a.i./ha, 7 DAA, Table 12): 65%
- Observed efficacy (%) (150 g a.i./ha, 14 DAA, Table 7): 70%
- Observed efficacy (%) (150 g a.i./ha, 14 DAA, Table 8): 65%
- Observed efficacy (%) (150 g a.i./ha, 14 DAA, Table 9): 65%
- Observed efficacy (%) (150 g a.i./ha, 14 DAA, Table 10): 70%
- Observed efficacy (%) (150 g a.i./ha, 14 DAA, Table 11): 85%
- Observed efficacy (%) (150 g a.i./ha, 14 DAA, Table 12): 70%
- Observed efficacy (%) (150 g a.i./ha, 14 DAA, Table 15): 75%
- Observed efficacy (%) (150 g a.i./ha, 21 DAA, Table 7): 70%
- Observed efficacy (%) (150 g a.i./ha, 21 DAA, Table 8): 60%
- Observed efficacy (%) (150 g a.i./ha, 21 DAA, Table 9): 60%
- Observed efficacy (%) (150 g a.i./ha, 21 DAA, Table 10): 70%
- Observed efficacy (%) (150 g a.i./ha, 21 DAA, Table 11): 85%
- Observed efficacy (%) (150 g a.i./ha, 21 DAA, Table 12): 70%
- Observed efficacy (%) (150 g a.i./ha, 21 DAA, Table 15): 70%
- Observed efficacy (%) (150 g a.i./ha, 28 DAA, Table 7): 60%
- Observed efficacy (%) (150 g a.i./ha, 28 DAA, Table 9): 60%
- Observed efficacy (%) (150 g a.i./ha, 28 DAA, Table 10): 60%
- Observed efficacy (%) (150 g a.i./ha, 28 DAA, Table 11): 85%
- Observed efficacy (%) (150 g a.i./ha, 28 DAA, Table 12): 60%
- Observed efficacy (%) (150 g a.i./ha, 28 DAA, Table 14): 60%
- Observed efficacy (%) (150 g a.i./ha, 28 DAA, Table 15): 60%
- Observed efficacy (%) (150 g a.i./ha, 35 DAA, Table 14): 55%
- Observed efficacy (%) (150 g a.i./ha, 35 DAA, Table 15): 55%

Structure (SMILES): CCOC(=O)C(C)Oc1ccc(Oc2cnc3cc(Cl)ccc3n2)cc1 (centres unmarked) [quizalofop-ethyl, Quizalofop-ethyl]
- Observed efficacy (%) (25 g a.i./ha, 28 DAA, Table 14): 35%
- Observed efficacy (%) (25 g a.i./ha, 35 DAA, Table 14): 30%

Structure (SMILES): CCc1cccc(C)c1N(COC(C)C)C(=O)CCl [Propisochlor]
- Observed efficacy (%) (540 g a.i./ha, 7 DAA, Table 12): 0%
- Observed efficacy (%) (540 g a.i./ha, 14 DAA, Table 12): 0%
- Observed efficacy (%) (540 g a.i./ha, 21 DAA, Table 12): 0%
- Observed efficacy (%) (540 g a.i./ha, 28 DAA, Table 12): 0%

Structure (SMILES): CCN(CC)C(=O)C(C)Oc1cccc2ccccc12 (centres unmarked) [napropamide, Napropamide]
- Observed efficacy (%) (675 g a.i./ha, 7 DAA, Table 11): 5%
- Observed efficacy (%) (675 g a.i./ha, 14 DAA, Table 11): 5%
- Observed efficacy (%) (675 g a.i./ha, 21 DAA, Table 11): 5%
- Observed efficacy (%) (675 g a.i./ha, 28 DAA, Table 11): 0%

Structure (SMILES): CS(=O)(=O)c1cc(C(F)(F)F)ccc1C(=O)c1cnoc1C1CC1 [Isoxaflutole]
- Observed efficacy (%) (60 g a.i./ha, 7 DAA, Table 9): 45%
- Observed efficacy (%) (60 g a.i./ha, 14 DAA, Table 9): 70%
- Observed efficacy (%) (60 g a.i./ha, 21 DAA, Table 9): 85%
- Observed efficacy (%) (60 g a.i./ha, 28 DAA, Table 9): 75%
